Where “and” joins values, the source holds several entries; their conditions need not be identical. Equal values may be shown once.
Tests used:
[1] = Molar enthalpy of transition or fusion; conditions: Crystal; DSC
[2] = for Triple point temperature: DTA

Brc1ccc2c(c1)Cc1ccccc1-2 [2-bromofluorene]
Conditions | Molar enthalpy of transition or fusion [kJ/mol]
[1] | 17

[2]
Conditions | vapor or sublimation pressure
327.17 K, Crystal, Calculated from knudsen effusion weight loss | 0.000118 kPa and 0.000119 kPa
329.13 K, Crystal, Calculated from knudsen effusion weight loss | 0.00015 kPa and 0.000148 kPa
331.09 K, Crystal, Calculated from knudsen effusion weight loss | 0.000186 kPa and 0.000183 kPa
333.16 K, Crystal, Calculated from knudsen effusion weight loss | 0.000223 kPa and 0.000225 kPa and 0.000229 kPa
335.14 K, Crystal, Calculated from knudsen effusion weight loss | 0.00028 kPa and 0.000275 kPa and 0.000279 kPa
337.11 K, Crystal, Calculated from knudsen effusion weight loss | 0.000347 kPa and 0.000346 kPa and 0.000343 kPa
339.16 K, Crystal, Calculated from knudsen effusion weight loss | 0.000417 kPa and 0.000416 kPa and 0.000425 kPa
341.14 K, Crystal, Calculated from knudsen effusion weight loss | 0.000515 kPa and 0.000501 kPa
343.1 K, Crystal, Calculated from knudsen effusion weight loss | 0.000627 kPa and 0.000626 kPa and 0.000634 kPa
345.16 K, Crystal, Calculated from knudsen effusion weight loss | 0.000749 kPa and 0.000747 kPa and 0.000758 kPa
347.09 K, Crystal, Calculated from knudsen effusion weight loss | 0.000928 kPa and 0.000929 kPa and 0.000909 kPa
349.09 K, Crystal, Calculated from knudsen effusion weight loss | 0.00112 kPa and 0.001125 kPa and 0.001127 kPa
350.8 K, Crystal, Closed cell (Static) method | 0.001323 kPa
352.79 K, Crystal, Closed cell (Static) method | 0.001593 kPa
354.74 K, Crystal, Closed cell (Static) method | 0.001921 kPa
356.73 K, Crystal, Closed cell (Static) method | 0.002274 kPa
358.7 K, Crystal, Closed cell (Static) method | 0.002726 kPa
360.67 K, Crystal, Closed cell (Static) method | 0.003206 kPa
362.65 K, Crystal, Closed cell (Static) method | 0.003848 kPa
364.63 K, Crystal, Closed cell (Static) method | 0.00452 kPa
366.6 K, Crystal, Closed cell (Static) method | 0.005367 kPa
368.56 K, Crystal, Closed cell (Static) method | 0.006271 kPa
370.56 K, Crystal, Closed cell (Static) method | 0.007492 kPa
372.53 K, Crystal, Closed cell (Static) method | 0.008716 kPa
374.47 K, Metastable liquid, Closed cell (Static) method | 0.012 kPa
374.5 K, Crystal, Closed cell (Static) method | 0.0103 kPa
376.47 K, Crystal, Closed cell (Static) method | 0.01202 kPa
376.47 K, Metastable liquid, Closed cell (Static) method | 0.01362 kPa
378.44 K, Crystal, Closed cell (Static) method | 0.01403 kPa
378.44 K, Metastable liquid, Closed cell (Static) method | 0.01541 kPa
380.4 K, Crystal, Closed cell (Static) method | 0.01634 kPa
380.4 K, Metastable liquid, Closed cell (Static) method | 0.01749 kPa
382.39 K, Metastable liquid, Closed cell (Static) method | 0.01992 kPa
384.36 K, Metastable liquid, Closed cell (Static) method | 0.02244 kPa
386.34 K, Metastable liquid, Closed cell (Static) method | 0.02529 kPa
388.31 K, Metastable liquid, Closed cell (Static) method | 0.02854 kPa
390.28 K, Closed cell (Static) method, Liquid | 0.03201 kPa
392.25 K, Closed cell (Static) method, Liquid | 0.03602 kPa
394.21 K, Closed cell (Static) method, Liquid | 0.04022 kPa
396.18 K, Closed cell (Static) method, Liquid | 0.04506 kPa
398.13 K, Closed cell (Static) method, Liquid | 0.05046 kPa
400.11 K, Closed cell (Static) method, Liquid | 0.05625 kPa
402.06 K, Closed cell (Static) method, Liquid | 0.0628 kPa
404.05 K, Closed cell (Static) method, Liquid | 0.06988 kPa
405.99 K, Closed cell (Static) method, Liquid | 0.0774 kPa
407.97 K, Closed cell (Static) method, Liquid | 0.08499 kPa
409.95 K, Closed cell (Static) method, Liquid | 0.0938 kPa
411.9 K, Closed cell (Static) method, Liquid | 0.1045 kPa
413.88 K, Closed cell (Static) method, Liquid | 0.1164 kPa
415.84 K, Closed cell (Static) method, Liquid | 0.1264 kPa
417.81 K, Closed cell (Static) method, Liquid | 0.1398 kPa
419.77 K, Closed cell (Static) method, Liquid | 0.1534 kPa

Conditions | Triple point temperature [K]
[2], Crystal | 387.39

Brc1ccc2c(c1)Cc1cc(Br)ccc1-2 [2,7-dibromofluorene]
Conditions | Molar enthalpy of transition or fusion [kJ/mol]
[1] | 22.7

[2], Crystal
Conditions | vapor or sublimation pressure
361.15 K, Calculated from knudsen effusion weight loss | 9.5e-05 kPa and 9.7e-05 kPa and 9.6e-05 kPa
363.14 K, Calculated from knudsen effusion weight loss | 0.000119 kPa and 0.000118 kPa
365.11 K, Calculated from knudsen effusion weight loss | 0.000147 kPa and 0.000148 kPa and 0.000144 kPa
367.16 K, Calculated from knudsen effusion weight loss | 0.000177 kPa and 0.000179 kPa
369.11 K, Calculated from knudsen effusion weight loss | 0.000218 kPa and 0.000214 kPa and 0.000215 kPa
371.1 K, Calculated from knudsen effusion weight loss | 0.000267 kPa and 0.000261 kPa
373.15 K, Calculated from knudsen effusion weight loss | 0.000318 kPa and 0.000315 kPa and 0.000319 kPa
375.12 K, Calculated from knudsen effusion weight loss | 0.000392 kPa and 0.000388 kPa and 0.000382 kPa
377.12 K, Calculated from knudsen effusion weight loss | 0.000472 kPa and 0.000478 kPa and 0.000463 kPa
379.15 K, Calculated from knudsen effusion weight loss | 0.000556 kPa and 0.00056 kPa and 0.000563 kPa
381.12 K, Calculated from knudsen effusion weight loss | 0.000678 kPa and 0.000687 kPa and 0.000674 kPa
382.23 K, Closed cell (Static) method | 0.000732 kPa
383.12 K, Calculated from knudsen effusion weight loss | 0.000809 kPa and 0.000827 kPa and 0.000832 kPa
384.26 K, Closed cell (Static) method | 0.000874 kPa
386.08 K, Closed cell (Static) method | 0.001029 kPa
388.21 K, Closed cell (Static) method | 0.001254 kPa
390.11 K, Closed cell (Static) method | 0.001472 kPa
392.14 K, Closed cell (Static) method | 0.001751 kPa
394.16 K, Closed cell (Static) method | 0.002104 kPa
396.08 K, Closed cell (Static) method | 0.002489 kPa
398.07 K, Closed cell (Static) method | 0.002922 kPa

Conditions | Triple point temperature [K]
[2], Crystal | 438.79
